In data set [1] the target is T1, hMRG-X1 receptor (Homo sapiens, UniProt Q96LB2). Put plainly: Beta-lactamase (BLA) reporter-gene assay in CHO-hMRG-X1-NFAT/BLA cells. In kind it is cell-based. The note with it: for IC50: antagonism of BAM15-induced BLA response. Here is the method: BLA assays in 384-well plates were performed essentially as described previously (11). For miniaturization of the BLA assay into 3456-well format, cells were serum-starved for ˜18 hours in assay medium (11) the day before the assay. On the day of the assay, cells were dissociated with enzyme-free dissociation buffer, re-suspended into assay medium and dispensed into a 3456-well nanoplate (3000 cells in 1.4 μl/well) using the FRD (Aurora Discovery, San Diego, Calif.) (13). Rest of the BLA assay was conducted essentially as described earlier (13). The cellular response was also observed by fluorescence microscopy with UV illumination. The data are plotted as a ratio of the emissions 460 nm/530 nm. Experimental data points are represented as median±standard deviation of 4-115 replicates.

Data set [2] addresses T1, hMRG-X1 receptor. Put plainly: Intracellular Ca2+ (FLIPR) assay in CHO-hMRG-X1-NFAT/Bla cells. It counts as cell-based. The note with it: inhibition of BAM15-induced i[Ca2+] response.
Description: Intracellular Ca^2+ measurements were performed essentially as described (14, 15). Modifications include 8000 cells/well of the CHO-hMRG-X1-NFAT/Bla cells in 20 μgrowth medium plated in 384-well plates 24 hours before assay. Cells were loaded with 20 μl of 2X calcium probe and fluorescent quencher. Agonist was prepared as a 4× stock in HBSS buffer and added to the assay plate by the FLIPR384 pipetter (13.3 μl/well). Experimental data points are represented as median±standard deviation of 4 replicates.
The target of data set [3] is T1, hMRG-X1 receptor. Put plainly: Receptor trafficking/internalization assay (InCell, Transfluor) in U2OS-hMRGX1-βarrGFP cells. In kind it is cell-based. The note with it: for IC50: 60 μM BAM15 (EC80), receptor trafficking. As to the method: (§1) U2OS-hMRGX1-βarrGFP stable cells were cultured in MEM supplemented with 10% heat-inactivated FBS, 4 mM L-Glutamine, 10 μg/ml Gentamicin, 10 mM HEPES, 0.4 mg/ml G-418, and 0.4 mg/ml Zeocin. Cells were plated on black/clear plastic bottom 384-well Corning plates at a density of 3000 cells/well in 20 μl growth medium and cultured overnight. DMSO, or sample compounds titrated in 75% DMSO were transferred from the compound source plate into the assay plate (200 nl/well). After 15 minutes incubation at 37° C. and 5% CO2, 5 μl of agonist (varying concentrations of BAM15 or EC80 concentration of 60 μM for compound titrations) was added and cells were incubated at 37° C. for 30 minutes. The fixing/nuclear staining solution was prepared in PBS as a 2× stock containing 4% paraformaldehyde and 2 μM DRAQ5 and 25 μl of this solution was added to the cells and incubated at room temperature in the dark for 30 minutes. The solution was then aspirated and replaced with PBS before confocal microscopy. Confocal microscopy was performed on the IN Cell Analyzer 3000 (GE Healthcare, Piscataway, N.J.).
All experiments with dose-response relationships were analyzed by a nonlinear regression software package from Graphpad (San Diego, Calif.). In the InCell 3000 imager, two excitation lines, 488 nm and 633 nm, were used to simultaneously excite βarrestin-GFP and the DRAQ5 nuclear stain, respectively. Confocal images from the IcCell 3000 were analyzed by the Raven software. Images of 200-300 cells from each well were captured and analyzed with GRN1 (granularity) algorithm using the Raven software of IN Cell Analyzer 3000. Individual cells or nuclei are first identified by thresholding the red channel (DRAQ5). From the nucleus, a rectangular bounding box was dilated out to the edge of the cell with a dilation setting of 15 pixels. […] This granularity algorithm was used to measure the number of fluorescent spots (Ngrains) based on fluorescent intensity and size of the grains and the average value from all the cells in a well were used to obtain the “Ngrain” value for the well. The same GRN1 algorithm was used to measure toxic affects or other false positives. Icyt value was used to measure the average intensity of the green fluorescence inside the bounding box as described above. Low Icyt values may indicate a sign of toxicity (resulting in either cell lyses or cells rounding up) displaying little or no GFP distribution in the cytoplasm and the plasma membrane, while high Icyt values may be due to the presence of fluorescent compound.

Data set [4] has as its target T1, hMRG-X1 receptor. The data set can be described thus: Whole cell receptor binding assay with 3H-BAM in CHO-hMRG-X1-NFAT-BLA cells. The note with it: 10 nM 3H-BAM, 4° C. Here is the method: CHO-hMRG-X1-NFAT-BLA cells were plated in a 24-well plate at 60,000 cells/well in 500 μl growth medium and incubated at 37° C. for 24 hours. The cells were washed once with 200 μl assay buffer (HANKS with 0.1% BSA and 20 mM HEPES, pH 7.5, refrigerated at 4° C.) using a vacuum aspirator. 90 μl assay buffer was added to each well followed by an addition of 0.2 μl/well diluted compounds (500X stock in DMSO) and incubated at 4° C. for 5 minutes. […] of ^3H-BAM peptide was added to each well (10 nM final concentration; ˜75,000 dpm) and the assay plate was incubated at 4° C. for 30 minutes with brief gentle shaking every 5 minutes. The assay plate was then washed rapidly with 2X 200 μl assay buffer (approximately 4 to 5 seconds for both washes). All wash steps were performed in a cold room (4° C.). To lyse the cells, 200 μl of 0.2 M NaOH was added to each well and incubate at room temperature for 30 minutes. The cell lysate in each well was transferred to a scintillation vial followed by addition of 3 ml scintillation solution (UltimaGold, PerkinElmer) and counted in a scintillation counter (1 minute per vial).

The subject of data set [5] is U2OS-hMRGX1-βarrGFP cells. Put plainly: Toxicity algorithm (Icyt) on the InCell imaging assay. It counts as cell-based. The note with it: even at 100 μM. As to the method:
as §1, with “The solution was then aspirated and replaced with PBS before confocal microscopy. Confocal microscopy was performed on the IN Cell Analyzer 3000 (GE Healthcare, Piscataway, N.J.).” left out
All experiments with dose-response relationships were analyzed by a nonlinear regression software package from Graphpad (San Diego, Calif.). […] Confocal images from the IcCell 3000 were analyzed by the Raven software. Images of 200-300 cells from each well were captured and analyzed with GRN1 (granularity) algorithm using the Raven software of IN Cell Analyzer 3000. […] Icyt value was used to measure the average intensity of the green fluorescence inside the bounding box as described above. […]

For data set [6], the target named is T1, hMRG-X1 receptor. The data set can be described thus: Whole cell receptor binding assay with 3H-BAM in CHO-hMRG-X1-NFAT-BLA cells. The note with it: [3H]-BAM15.

This is an account of results in patent publication US20080027095A1, “Use Of 3-Substituted-2-(Diphenylmethy)-1-Azabicyclo[2.2.2]Octanes For Treating Mrg-X1 Receptor Mediated Diseases” (priority 2005, published 2008).

Where no end group is shown, it is not given here.

T1 sequence (Q96LB2 whole entry): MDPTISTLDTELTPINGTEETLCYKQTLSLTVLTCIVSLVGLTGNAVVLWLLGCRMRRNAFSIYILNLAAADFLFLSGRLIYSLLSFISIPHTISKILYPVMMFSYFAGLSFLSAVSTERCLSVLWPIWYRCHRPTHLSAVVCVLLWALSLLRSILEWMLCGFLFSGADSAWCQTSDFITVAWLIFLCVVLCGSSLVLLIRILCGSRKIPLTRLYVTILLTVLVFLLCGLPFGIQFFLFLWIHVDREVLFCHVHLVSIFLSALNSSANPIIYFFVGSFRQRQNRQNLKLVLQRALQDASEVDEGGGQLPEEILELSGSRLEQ

In general, IC50 refers to the concentration that inhibits the measured activity by half. Regarding `C(Cc1ccccc1)=C1C2CCN(CC2)C1C(c1ccccc1)c1ccccc1` (centres unmarked) [Compound 7], the IC50 was 163 nM in data set [1] (read-out: IC50 BLA), 220 nM in data set [2] (read-out: IC50 FLIPR), 2200 nM in data set [3] (read-out: IC50 InCell) and 1430 nM in data set [4] (read-out: IC50 Binding).
With `Cc1cc(C)cc(C(O)C=C2C3CCN(CC3)C2C(c2ccccc2)c2ccccc2)c1` (centres unmarked) [Compound 9], the IC50 in data set [1] (read-out: IC50 BLA) was 200 nM; in data set [2] (read-out: IC50 FLIPR), 1500 nM; in data set [3] (read-out: IC50 InCell), 5200 nM.
Regarding `O=C(Nc1cccc([N+](=O)[O-])c1)OC1C2CCN(CC2)C1C(c1ccccc1)c1ccccc1` (centres unmarked) [Compound 13], the IC50 in data set [1] (IC50 BLA) turned out to be 290 nM; in data set [2] (IC50 FLIPR) it was 1300 nM; in data set [3] (IC50 InCell), 6300 nM; in data set [4] (IC50 Binding), 1850 nM.
The matching figures for `O=C(Nc1cccc2ccccc12)OC1C2CCN(CC2)C1C(c1ccccc1)c1ccccc1` (centres unmarked) [Compound 5]: 124 nM, 904 nM, 2200 nM and 1220 nM.
In the case of `COc1ccccc1NC(=S)NC1C2CCN(CC2)C1C(c1ccccc1)c1ccccc1` (centres unmarked) [Compound 15], the IC50 in data set [1] (read-out: IC50 BLA) is 418 nM; in data set [2] (read-out: IC50 FLIPR), 9800 nM; in data set [3] (read-out: IC50 InCell) it was 13500 nM; in data set [4] (read-out: IC50 Binding), 2510 nM.
Turning to `OC(C=C1C2CCN(CC2)C1C(c1ccccc1)c1ccccc1)c1cccc(C(F)(F)F)c1` (centres unmarked) [Compound 4], the IC50 in data set [1] (read-out: IC50 BLA) was found to be 90 nM; in data set [2] (read-out: IC50 FLIPR), 209 nM; in data set [3] (read-out: IC50 InCell), 6780 nM.
`O=C(OC1C2CCN(CC2)C1C(c1ccccc1)c1ccccc1)c1ccccc1C(F)(F)F` (centres unmarked) [Compound 12]: the IC50 in data set [1] (IC50 BLA) is 252 nM; in data set [2] (IC50 FLIPR) it was 3300 nM; in data set [3] (IC50 InCell) it was 8800 nM; in data set [4] (IC50 Binding), 2400 nM.
Turning to `N#Cc1cccc(COC2C3CCN(CC3)C2C(c2ccccc2)c2ccccc2)c1` (centres unmarked) [Compound 10], the results for the IC50 in data set [1] (read-out: IC50 BLA), in data set [2] (read-out: IC50 FLIPR) and in data set [3] (read-out: IC50 InCell) were 209 nM, 492 nM and 10000 nM, respectively.
As for `COc1ccc(C(=O)OC2C3CCN(CC3)C2C(c2ccccc2)c2ccccc2)cc1OC` (centres unmarked) [Compound 2], the IC50 was found to be 64 nM in data set [1] (IC50 BLA), 157 nM in data set [2] (IC50 FLIPR) and 2800 nM in data set [3] (IC50 InCell).
Regarding `COc1ccccc1C(O)C=C1C2CCN(CC2)C1C(c1ccccc1)c1ccccc1` (centres unmarked) [Compound 3], the IC50 in data set [1] (read-out: IC50 BLA) came out at 80 nM; in data set [2] (read-out: IC50 FLIPR), 187 nM; in data set [3] (read-out: IC50 InCell), 550 nM; in data set [4] (read-out: IC50 Binding) it was 182 nM.
On the same counts, the results for `FC(F)(F)c1ccccc1CNC1C2CCN(CC2)C1C(c1ccccc1)c1ccccc1` (centres unmarked) [Compound 11] are 244 nM, 460 nM, 5200 nM and 1290 nM.
On the same counts, the results for `OC(C=C1C2CCN(CC2)C1C(c1ccccc1)c1ccccc1)c1ccc(F)cc1` (centres unmarked) [Compound 8] are 165 nM, 334 nM, 4800 nM and 630 nM.
For the compound `N#Cc1ccc(COC2C3CCN(CC3)C2C(c2ccccc2)c2ccccc2)cc1` (centres unmarked) [Compound 16], the IC50 came to 556 nM in data set [1] (read-out: IC50 BLA) and 1850 nM in data set [4] (read-out: IC50 Binding).
For `O=C(Nc1ccccc1Cl)OC1C2CCN(CC2)C1C(c1ccccc1)c1ccccc1` (centres unmarked) [Compound 14], the IC50 in data set [1] (IC50 BLA) worked out at 375 nM; in data set [2] (IC50 FLIPR), 2700 nM; in data set [3] (IC50 InCell), 29000 nM; in data set [4] (IC50 Binding), 1180 nM.
On the same counts, the results for `O=C(Nc1ccccc1Cl)OC1C2CCN(CC2)C1C(c1ccccc1)c1ccccc1` (centres unmarked) [Compound 6] are 140 nM, 751 nM, 3600 nM and 607 nM.
Regarding `COc1ccccc1C(=O)C=C1C2CCN(CC2)C1C(c1ccccc1)c1ccccc1` (centres unmarked) [Compound 1], in data set [5], the “toxicity by toxicity algorithm on the InCell imaging assay” value was “minimal toxicity”.
One may read the Kd as the free concentration of one partner at which half of the binding sites on the other are occupied at equilibrium, for simple one-to-one binding. As to “VGRPEWWMDYQKRYG [BAM15, reference compound]”, the EC50 in data set [1] (1.8 μl assay in 3456-well plates, FIG. 3A, read-out: EC50, BLA assay miniaturized) was 20 nM; in data set [1] (384-well, across 5 clones, FIG. 2B, read-out: EC50s for BAM15, BLA assay), 40 to 300 nM; in data set [3] (BAM15-induced, 30 minutes, FIG. 4, read-out: EC50 of pit phenotype (receptor internalization)), ~14000 nM. The compound also came in with a Kd in data set [6] of 80 nM.
